≈ marks a conversion by molar mass, not a printed value.
How the values were obtained:
[1] = Inhibition of Severe acute respiratory syndrome coronavirus 3CL protease; design: species or system Severe acute respiratory syndrome-related coronavirus
[2] = Cytotoxicity against African green monkey Vero E6 cells assessed as cell growth inhibition incubated for 48 hrs by CCK8 assay; type: toxicity, cell-based, Vero C1008; details: chlorocebus sabaeus
[3] = Selectivity ratio of CC50 for African green monkey Vero E6 cells to EC50 for Severe acute respiratory syndrome coronavirus infected in African green monkey Vero E6 cells; type: toxicity, Vero C1008; details: read-out: Ratio CC50/EC50
[4] = tested on: Ebolavirus; assay: Antiviral activity against Ebolavirus infected in African green monkey Vero E6 cells; type: functional, organism-based; details: Orthoebolavirus, Vero C1008
[5] = Selectivity ratio of CC50 for African green monkey Vero E6 cells to EC50 for Severe acute respiratory syndrome coronavirus […]; type: toxicity, Vero C1008; details: read-out: Ratio CC50/EC50
[6] = Cytotoxicity against African green monkey Vero E6 cells assessed as cell growth inhibition incubated for 24 hrs by CCK8 assay; type: toxicity, cell-based, Vero C1008; details: chlorocebus sabaeus
[7] = tested on: SARS-CoV; assay: Antiviral activity against Severe acute respiratory syndrome coronavirus infected in African green monkey Vero E6 cells; type: functional, organism-based; details: Severe acute respiratory syndrome-related coronavirus, Vero C1008
[8] = tested on: SARS-CoV-2; assay: Antiviral activity against Severe acute respiratory syndrome coronavirus 2 infected in African green monkey Vero cells incubated for 24 to 48 hrs; type: functional, organism-based; details: Severe acute respiratory syndrome coronavirus 2, Vero
[9] = tested on: SARS-CoV-2; assay: Antiviral activity against Severe acute respiratory syndrome coronavirus 2 incubated for 48 hrs by TCID50 assay; type: functional, organism-based; details: Severe acute respiratory syndrome coronavirus 2, 48 h
[10] = tested on: SARS-CoV-2; assay: Antiviral activity against Severe acute respiratory syndrome coronavirus 2; type: functional, organism-based
[11] = Cytotoxicity against African green monkey Vero E6 cells assessed as cell growth inhibition incubated for 48 hrs; type: toxicity, cell-based, Vero C1008; details: chlorocebus sabaeus
[12] = tested on: SARS-CoV; assay: Antiviral activity against Severe acute respiratory syndrome coronavirus; type: functional, organism-based; details: Severe acute respiratory syndrome-related coronavirus
[13] = Inhibition of Severe acute respiratory syndrome coronavirus CYP3A4; type: ADME, Severe acute respiratory syndrome-related coronavirus
[14] = tested on: Zika virus; assay: Antiviral activity against Zika virus Paraiba-01 infected in african green monkey Vero cells; type: functional, organism-based; details: Paraiba-01, Vero
[15] = tested on: Tick-borne encephalitis virus; assay: Antiviral activity against Tick-borne encephalitis virus Hypr infected in african green monkey Vero cells; type: functional, organism-based
[16] = tested on: Zika virus; assay: Antiviral activity against Zika virus MR-766 infected in african green monkey Vero cells; type: functional, organism-based; details: MR-766, Vero
[17] = tested on: West Nile virus; assay: Antiviral activity against West Nile virus 13-104 infected in african green monkey Vero cells; type: functional, organism-based; details: 13-104, Vero
[18] = tested on: West Nile virus; assay: Antiviral activity against West Nile virus Eg101 infected in african green monkey Vero cells; type: functional, organism-based

Cc1cc(C(=O)N[C@@H](C)C(=O)N[C@H](C(=O)N[C@@H](CC(C)C)C(=O)N[C@H](/C=C/C(=O)OCc2ccccc2)C[C@@H]2CCNC2=O)C(C)C)no1
EC50 [1]: 16.8 µM

NC(=O)c1nc(F)cnc1O
CC50 at 48 h [2]: > 400 µM | selectivity ratio [3]: > 6.46 | EC50 [4]: 10.5 µg/mL (≈ 66.8 µM)

O=C[C@H](C[C@@H]1CCNC1=O)NC(=O)[C@H](Cc1cccc(F)c1)NC(=O)c1cc2ccccc2[nH]1
selectivity ratio [5]: > 139 | CC50 at 24 h [6]: > 100 µM

O=C[C@H](C[C@@H]1CCNC1=O)NC(=O)[C@H](CC1CCCCC1)NC(=O)c1cc2ccccc2[nH]1
CC50 at 24 h [6]: > 100 µM

CC(C)(C)OC(=O)Nc1cccn([C@@H](CC2CC2)C(=O)N[C@H](CC(=O)NCc2ccccc2)C[C@@H]2CCNC2=O)c1=O
EC50 [1]: 4 µM

CCN(CC)CCCC(C)Nc1ccnc2cc(Cl)ccc12 (configuration not stated) [CHLOROQUINE]
EC50 [7]: 1.13 µM | CC50 at 48 h [2]: > 100 µM | selectivity ratio [3]: > 88.5

CCN(CCO)CCCC(C)Nc1ccnc2cc(Cl)ccc12 (configuration not stated) [HYDROXYCHLOROQUINE]
EC50 [8]: 0.72 µM

Cc1cccc(C)c1OCC(=O)N[C@@H](Cc1ccccc1)[C@@H](O)C[C@H](Cc1ccccc1)NC(=O)[C@H](C(C)C)N1CCCNC1=O [LOPINAVIR]
EC50 [9]: 26.1 µM

CCOC(=O)C1=C[C@@H](OC(CC)CC)[C@H](NC(C)=O)[C@@H](N)C1 [OSELTAMIVIR]
EC50 [10]: > 100 µM | CC50 at 48 h [11]: > 100 µM

NC(=O)c1ncn([C@@H]2O[C@H](CO)[C@@H](O)[C@H]2O)n1 [RIBAVIRIN]
EC50 [12]: > 100 µM

CC(C)c1nc(CN(C)C(=O)N[C@H](C(=O)N[C@@H](Cc2ccccc2)C[C@H](O)[C@H](Cc2ccccc2)NC(=O)OCc2cncs2)C(C)C)cs1 [RITONAVIR]
EC50 [13]: > 100 µM

CCOC(=O)c1c(CSc2ccccc2)n(C)c2cc(Br)c(O)c(CN(C)C)c12 [UMIFENOVIR]
EC50 [14]: 10.6 µM | EC50 [15]: 10.6 µM | EC50 [16]: 10.6 µM | EC50 [17]: 10.6 µM | EC50 [18]: 10.6 µM

Reference: ChEMBL document CHEMBL5244254, “Potential treatment methods targeting 2019-nCoV infection” (Eur J Med Chem, 2020)
